Measurements: patent publication US10294202B2, “Pyrrolidinones as herbicides” (FMC Corporation, priority 2013, dated 2019)

Assays:
corn = assay: Test A pre-/postemergence herbicide test; assay type: in vivo, Zea mays
How it was run: (§1)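 Visual injury ratings, 0 = no effect, 100 = complete control, taken ~10 days after treatment against untreated greenhouse controls. Preemergence: directed soil spray onto seeded loam/sand pots. Postemergence: spray onto plants at one- to two-leaf stage, 2–10 cm tall.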

crabgrass, large = assay: Test A pre-/postemergence herbicide test; assay type: in vivo, Digitaria sanguinalis
How it was run: as §1

velvetleaf = assay: Test A pre-/postemergence herbicide test; assay type: in vivo, Abutilon theophrasti
How it was run: as §1

morningglory = assay: Test A pre-/postemergence herbicide test; assay type: in vivo, Ipomoea spp.
How it was run: as §1

blackgrass = assay: Test C pre-/postemergence herbicide test; assay type: in vivo, Alopecurus myosuroides
Excerpt: (§2) Seeds of plant species selected from blackgrass (Alopecurus myosuroides), ryegrass, Italian (Italian ryegrass, Lolium multiflorum), wheat (winter wheat, Triticum aestivum), galium (catchweed bedstraw, Galium aparine), corn (Zea mays), crabgrass, large (large crabgrass, Digitaria sanguinalis), foxtail, giant (giant foxtail, Setaria faberii), johnsongrass (Sorghum halepense), lambsquarters (Chenopodium album), morningglory (Ipomoea coccinea), nutsedge, yellow (yellow nutsedge, Cyperus esculentus), pigweed (Amaranthus retroflexus), ragweed (common ragweed, Ambrosia elatior), soybean (Glycine max), barnyardgrass (Echinochloa crus-galli), oilseed rape (Brassica napus), waterhemp (common waterhemp, Amaranthus rudis), kochia (Kochia scoparia), oat, wild (wild oat, Avena fatua), surinam grass (Brachiaria decumbens), foxtail, green (green foxtail, Setaria viridis), goosegrass (Eleusine indica), bromegrass, downy (downy bromegrass, Bromus tectorum), nightshade (eastern black nightshade, Solanum ptycanthum), cocklebur (common cocklebur, Xanthium strumarium), cupgrass, woolly (woolly cupgrass, Eriochloa villosa), bermudagrass (Cynodon dactylon), sunflower, (common oilseed sunflower, Helianthus annuus), Russian thistle (Salsola kali) and velvetleaf (Abutilon theophrasti) were planted into a blend of loam soil and sand and treated preemergence with test chemicals formulated in a non-phytotoxic solvent mixture which included a surfactant. At the same time, plants selected from these crop and weed species and also barley (winter barley, Hordeum vulgare), […]), chickweed (common chickweed, Stellaria media), deadnettle (henbit deadnettle, Lamium amplexicaule), and canarygrass (littleseed canarygrass, Phalaris minor) were planted in pots containing Redi-Earth® planting medium (Scotts Company, 14111 Scottslawn Road, Marysville, Ohio 43041) comprising spaghnum peat moss, vermiculite, wetting agent and starter nutrients and treated with postemergence applications of test chemicals formulated in the same manner. Plants ranged in height from 2 to 18 cm (1- to 4-leaf stage) for postemergence treatments. Treated plants and controls were maintained in a greenhouse for 13 to 15 days, after which time all species were compared to controls and visually evaluated. Plant response ratings, summarized in Table C, are based on a scale of 0 to 100 where 0 is no effect and 100 is complete control. A dash (-) response means no test result.

wheat (winter wheat) = assay: Test C pre-/postemergence herbicide test; assay type: in vivo, Triticum aestivum
Excerpt: as §2

[1] = Postemergence, 125 g ai/ha, 0 to 100 scale, 0 no effect, 100 complete control
[2] = Postemergence, 500 g ai/ha, 0 to 100 scale (0 no effect, 100 complete control)
[3] = Preemergence, 125 g ai/ha, visual rating on 0 to 100 scale (0 no effect, 100 complete control)
[4] = preemergence, 500 g ai/ha, 0 to 100 scale
[5] = Preemergence, 62 g ai/ha, scale 0 to 100
[6] = Preemergence, 125 g ai/ha, scale 0 to 100 (0 no effect, 100 complete control)
[7] = Postemergence, 125 g ai/ha, visual rating on 0 to 100 scale (0 no effect, 100 complete control), approx. 10 days
[8] = Postemergence, 31 g ai/ha, scale 0 to 100 (0 no effect, 100 complete control)
[9] = Postemergence, 62 g ai/ha, scale 0 (no effect) to 100 (complete control)
[10] = Postemergence, 125 g ai/ha, scale 0 to 100 (0 no effect, 100 complete control)
[11] = Postemergence, 250 g ai/ha, scale 0 to 100 (0 no effect, 100 complete control)
[12] = Preemergence, 31 g ai/ha, scale 0 to 100, 0 is no effect and 100 is complete control
[13] = Preemergence, 62 g ai/ha, scale 0 to 100 (0 no effect, 100 complete control)
[14] = Preemergence, 125 g ai/ha, scale 0 to 100
[15] = Postemergence, 16 g ai/ha, scale 0 to 100 (0 no effect, 100 complete control)
[16] = Preemergence, 16 g ai/ha, scale 0 to 100

Row | SMILES | Plant response rating, Corn (corn; [2]) | Plant response rating, Blackgrass (blackgrass; [6]) | Plant response rating, Corn (corn; [7]) | Plant response rating, Blackgrass (blackgrass; [8]) | Plant response rating, Blackgrass (blackgrass; [9]) | Plant response rating, Blackgrass (blackgrass; [10]) | Plant response rating, Blackgrass (blackgrass; [11]) | Blackgrass plant response rating (blackgrass; [12]) | Blackgrass plant response rating (blackgrass; [13]) | Plant response rating, Blackgrass (blackgrass; [14]) | Plant response rating (scale of 0 to 100), Blackgrass (blackgrass; Preemergence, 250 g ai/ha) | Plant response rating, Wheat (wheat (winter wheat); [8]) | Plant response rating, Wheat (wheat (winter wheat); [9]) | Plant response rating, Wheat (wheat (winter wheat); [10]) | Plant response rating, Wheat (wheat (winter wheat); [11]) | Wheat plant response rating (wheat (winter wheat); [13]) | Plant response rating, Wheat (wheat (winter wheat); [14]) | Wheat plant response rating (wheat (winter wheat); [12]) | Plant response rating (scale of 0 to 100), Wheat (wheat (winter wheat); Preemergence, 250 g ai/ha) | other results
1 | O=C1NCC(c2ccc(Cl)c(F)c2)C1C(=O)Nc1ccccc1F (stereo not shown) [Compound 53] | 0 | 0 | – | – | – | – | – | – | – | – | – | – | – | – | – | – | – | – | – | Plant response rating, Corn (corn; [1]): 0; Corn plant response rating (corn; [3]): 0; Plant response rating, Corn (corn; [4]): 0; Plant response rating, Crabgrass, Large (crabgrass, large; [1]): 80; Plant response rating, Crabgrass, Large (crabgrass, large; [2]): 80; Crabgrass, Large plant response rating (crabgrass, large; [3]): 90; Plant response rating, Crabgrass, Large (crabgrass, large; [4]): 90; Plant response rating, Velvetleaf (velvetleaf; [1]): 0; Plant response rating, Velvetleaf (velvetleaf; [2]): 0; Velvetleaf plant response rating (velvetleaf; [3]): 0; Plant response rating, Velvetleaf (velvetleaf; [4]): 0; Plant response rating, Morningglory (morningglory; [1]): 0; Plant response rating, Morningglory (morningglory; [2]): 0; Morningglory plant response rating (morningglory; [3]): 0; Plant response rating, Morningglory (morningglory; [4]): 0; Blackgrass plant response rating (blackgrass; Preemergence, 31 g ai/ha, scale 0 to 100 (0 no effect, 100 complete control)): 0; Plant response rating, Blackgrass (blackgrass; [5]): 0; Plant response rating, Blackgrass (blackgrass; Preemergence, 250 g ai/ha, scale 0 to 100 (0 no effect, 100 complete control)): 0; Plant response rating, Wheat (wheat (winter wheat); [5]): 0; Plant response rating, Wheat (wheat (winter wheat); [6]): 0
2 | O=C1NCC(c2cccc(C(F)(F)F)c2)C1C(=O)Nc1cccc(Cl)c1F (stereo not shown) [Compound 316] | 80 | – | 60 | 0 | 0 | 0 | 0 | 0 | 0 | 30 | 60 | 0 | 0 | 0 | 0 | 5 | 40 | – | – | –
3 | O=C1NCC(c2ccc(C(F)(F)F)cc2)C1C(=O)Nc1ccccc1Cl (stereo not shown) [Compound 233] | – | 60 | – | – | – | – | – | 30 | – | – | 90 | – | – | – | – | 0 | – | 0 | 0 | Plant response rating, Corn (corn; Postemergence, 125 g ai/ha, 0 to 100 scale, 0 is no effect, 100 is complete control): 20; Corn plant response rating (0 to 100 scale, 0 is no effect, 100 is complete control) (corn; Postemergence, 500 g ai/ha): 20; Plant response rating, Blackgrass (blackgrass; [5]): 45; Plant response rating, Wheat (wheat (winter wheat); [6]): 0
4 | O=C1NCC(c2cccc(Br)c2)C1C(=O)Nc1ccccc1F (stereo not shown) [Compound 307] | 60 | – | 0 | – | – | – | – | 0 | 0 | 10 | 5 | – | – | – | – | 0 | 5 | – | 15 | –
5 | CN1CC(c2ccc(C(F)(F)F)cc2)C(C(=O)Nc2ccccc2F)C1=O (stereo not shown) [Compound 304] | 70 | 70 | 30 | 0 | 0 | 0 | – | 35 | 60 | – | – | 0 | 0 | 0 | – | 50 | – | 40 | – | Plant response rating, Blackgrass (blackgrass; [15]): 0; Plant response rating, Blackgrass (blackgrass; [16]): 30; Plant response rating, Wheat (wheat (winter wheat); [15]): 0; Plant response rating, Wheat (wheat (winter wheat); [16]): 5
6 | O=C1NCC(c2cccc(OC(F)F)c2)C1C(=O)Nc1ccc(F)c(F)c1F (stereo not shown) [Compound 325] | 80 | – | 80 | 0 | 0 | 0 | 35 | 5 | 50 | 70 | 85 | 0 | 0 | 0 | 5 | 40 | 65 | – | – | –
7 | O=C(Nc1ccccc1F)C1C(=S)NCC1c1cccc(C(F)(F)F)c1 (stereo not shown) [Compound 274] | – | 75 | – | – | – | – | – | 0 | 70 | – | 90 | – | – | – | – | 0 | – | 0 | 40 | Plant response rating, Corn (corn; Postemergence, 1000 g ai/ha, 0 to 100 scale (0 no effect, 100 complete control)): 70
8 | O=C1NCC(c2cccc(C(F)(F)F)c2)C1C(=O)Nc1ccc(F)c(F)c1F (stereo not shown) [Compound 315] | 80 | – | 70 | 0 | 0 | 30 | 25 | 60 | 60 | 65 | 85 | 0 | 0 | 0 | 5 | 50 | 90 | – | 90 | –
